The values below come from US8017612B2, “Piperazine compound and use thereof as a HCV polymerase inhibitor” (priority 2006, dated 2011).

For experiment [1], the target named is T1, HCV polymerase (NS5B) type 1b (Hepatitis C virus genotype 1b, UniProt P26663).
T1 construct: a region encoding NS5B (J Virol 1991 March, 65(3), 1105-13, 544 amino acids after deletion of 47 amino acids on the C-terminal); 6xHis (C); made in house; host or cells: Escherichia coli
Put plainly: Assay of enzyme (HCV polymerase) inhibitory activity, type 1b enzyme. The class given is biochemical, HCV BK strain (type 1b). In short, it runs like this: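 IC50 derived from [3H]UTP incorporation into TCA-insoluble RNA, compared with and without test compound. Reaction (25 °C, 60 min, Tris pH 7.5, 5 mM MgCl2): E. coli-expressed 1b NS5B Δ47 with His tag at 0.5 μg/ml, 5 μg/ml run-off substrate RNA, ATP/GTP/CTP 50 μM, UTP 2 μM.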

Experiment [2] deals with T2, HCV polymerase (NS5B) type 1a (Hepatitis C virus genotype 1a, UniProt P26664).
T2 construct: made in house; host or cells: Escherichia coli (by the 'similar method' of the 1b enzyme)
Put plainly: Assay of enzyme (HCV polymerase) inhibitory activity, type 1a enzyme. It is filed as biochemical, HCV type 1a (cloned from the blood of patients). In short, it runs like this:
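Reactions ran 60 min at 25° C in 20 mM Tris-HCl pH 7.5, 5 mM MgCl2, 50 mM NaCl, holding genotype 1a NS5B (1.5 μg/ml, Δ47 C-terminus, 6His), substrate RNA 5 μg/ml, UTP 2 μM with tritiated UTP and other NTPs 50 μM. IC50 derived from incorporated radiolabel in filter-trapped RNA relative to uninhibited reaction.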

Setting [3] is: HCV polymerase inhibitory activity IC50, 1b, type 1b enzyme.
Where [4] appears, read: HCV polymerase inhibitory activity IC50, 1a, type 1a enzyme.
[5] abbreviates: HCV polymerase inhibitory activity (IC50), 1b, type 1b enzyme 0.5 μg/ml, 25° C., 60 min.
The mark [6] stands for this setting: HCV polymerase inhibitory activity (IC50), 1a, type 1a enzyme 1.5 μg/ml, 25° C., 60 min.

Structures are written as SMILES. Structures can show the parent of a compound that is named as a salt.

By IC50 is commonly meant the concentration at which inhibition is half-maximal. On to `O=C(NCc1ccc(OC(F)(F)F)cc1)[C@H]1CN(c2nc3nc(C4CC4)ncc3s2)CCN1S(=O)(=O)c1ccc(C2CC2)cc1` [Example 1099, (R)-1-(4-cyclopropyl-benzenesulfonyl)-4-(5-cyclopropyl-thiazolo [4,5-d]pyrimidin-2-yl)-piperazine-2-carboxylic acid 4-trifluoromethoxy-benzylamide], for which the IC50 in experiment [1] (setting [3]) and in experiment [2] (setting [4]) was less than 100 nM throughout.
For `CCOC(=O)c1ccc2ncc(N3CCN(S(=O)(=O)c4ccc(OC(F)(F)F)cc4)[C@@H](C(=O)NCc4ccc(C(F)(F)CC)cc4)C3)nc2c1` [Example 710, 3-[(R)-3-[4-(1,1-difluoro-propyl)-benzylcarbamoyl]-4-(4-trifluoromethoxy-benzenesulfonyl)-piperazin-1-yl]-quinoxaline-6-carboxylic acid ethyl ester], the IC50 in experiment [1] (setting [3]) and in experiment [2] (setting [4]) was 100 to 1000 nM in each case.
Turning to `N#Cc1ncc2sc(N3CCN(S(=O)(=O)c4ccc(OC(F)(F)F)cc4)[C@@H](C(=O)NCc4ccc(OC(F)F)cc4)C3)nc2n1` [Example 1036, (R)-4-(5-cyano-thiazolo[4,5-d]pyrimidin-2-yl)-1-(4-trifluoromethoxy-benzenesulfonyl)-piperazine-2-carboxylic acid 4-difluoromethoxy-benzylamide], the IC50 in experiment [1] (setting [3]) and in experiment [2] (setting [4]) was less than 100 nM throughout.
`Cc1nc(N2CCN(S(=O)(=O)c3ccc(OC(F)(F)F)cc3)[C@@H](C(=O)NCc3ccc(N(C)C)cc3)C2)sc1C(=O)O` [Example 379, 2-[(R)-3-(4-dimethylamino-benzylcarbamoyl)-4-(4-trifluoromethoxy-benzenesulfonyl)-piperazin-1-yl]-4-methyl-thiazole-5-carboxylic acid hydrochloride]: the IC50 in experiment [1] (setting [5]) and in experiment [2] (setting [6]) was less than 100 nM throughout.
Regarding `CCC(F)(F)c1ccc(CNC(=O)[C@H]2CN(c3nc(NC(C)=O)ns3)CCN2S(=O)(=O)c2ccc(OC(F)(F)F)cc2)cc1` [Example 596, (R)-4-(3-acetylamino-[1,2,4]thiadiazol-5-yl)-1-(4-trifluoromethoxy-benzenesulfonyl)-piperazine-2-carboxylic acid 4-(1,1-difluoro-propyl)-benzylamide], the IC50 in experiment [1] (setting [5]) and in experiment [2] (setting [6]) was less than 100 nM each time.
In the case of `CC(C)(C)c1ncc2sc(N3CCN(S(=O)(=O)c4ccc(C(F)(F)F)cc4)[C@@H](C(=O)NCc4ccc(OC(F)(F)F)cc4)C3)nc2n1` [Example 1025, (R)-4-(5-tert-butyl-thiazolo[4,5-d]pyrimidin-2-yl)-1-(4-trifluoromethyl-benzenesulfonyl)-piperazine-2-carboxylic acid 4-trifluoromethoxy-benzylamide], the IC50 in experiment [1] (setting [3]) and in experiment [2] (setting [4]) was less than 100 nM each time.
Turning to `CCC(F)(F)c1ccc(CNC(=O)[C@H]2CN(c3nc4nc(C)ncc4s3)CCN2S(=O)(=O)c2ccc(OC(F)(F)F)cc2)cc1` [Example 926, (R)-4-(5-methyl-thiazolo[4,5-d]pyrimidin-2-yl)-1-(4-trifluoromethoxy-benzenesulfonyl)-piperazine-2-carboxylic acid 4-(1,1-difluoro-propyl)-benzylamide], the IC50 in experiment [1] (setting [3]) and in experiment [2] (setting [4]) was less than 100 nM throughout.
As for `CCCc1ccc(S(=O)(=O)N2CCN(C(=O)Nc3ccncc3)C[C@@H]2C(=O)NCc2ccc(C(C)C)cc2)cc1` [Example 295, (R)-4-(4-propyl-benzenesulfonyl)-piperazine-1,3-dicarboxylic acid 3-(4-isopropyl-benzylamide) 1-pyridin-4-ylamide], the IC50 in experiment [1] (setting [5]) and in experiment [2] (setting [6]) was less than 100 nM throughout.
As for `CC(=O)N1CCN(S(=O)(=O)c2ccc(C(C)C)cc2)C(C(=O)NCc2ccc(Br)cc2)C1` (centres unmarked) [Example 54, 4-acetyl-1-(4-isopropyl-benzenesulfonyl)-piperazine-2-carboxylic acid 4-bromo-benzylamide], the IC50 in experiment [1] (setting [5]) and in experiment [2] (setting [6]) was greater than 1000 nM throughout.
On to `CNC(=O)c1ncc2sc(N3CCN(S(=O)(=O)c4ccc(OC(F)(F)F)cc4)[C@@H](C(=O)NCc4ccc(OC(F)(F)F)cc4)C3)nc2n1` [Example 1046, 2-[(R)-4-(4-trifluoromethoxy-benzenesulfonyl)-3-(4-trifluoromethoxy-benzylcarbamoyl)-piperazin-1-yl]-thiazolo[4,5-d]pyrimidine-5-carboxylic acid methylamide], for which the IC50 in experiment [1] (setting [3]) and in experiment [2] (setting [4]) was less than 100 nM each time.
For the molecule `CN(C)c1ccc(CNC(=O)C2CN(C(=O)CC3CCCCC3)CCN2S(=O)(=O)c2ccc(I)cc2)cc1` (centres unmarked) [Example 122, 4-(2-cyclohexyl-acetyl)-1-(4-iodo-benzenesulfonyl)-piperazine-2-carboxylic acid 4-dimethylamino-benzylamide], the IC50 in experiment [1] (setting [5]) and in experiment [2] (setting [6]) was greater than 1000 nM in each case.
For `COc1cccc(CC(=O)N2CCN(S(=O)(=O)c3ccc(C(F)(F)F)cc3)[C@@H](C(=O)NCc3ccc(C(C)C)cc3)C2)c1` [Example 268, (R)-4-[2-(3-methoxy-phenyl)-acetyl]-1-(4-trifluoromethyl-benzenesulfonyl)-piperazine-2-carboxylic acid 4-isopropyl-benzylamide], the IC50 is 100 to 1000 nM in experiment [1] (setting [5]) and greater than 1000 nM in experiment [2] (setting [6]).
For `O=C(NCc1ccc(OCF)cc1)[C@H]1CN(c2nc3ncncc3s2)CCN1S(=O)(=O)c1ccc(OC(F)(F)F)cc1` [Example 967, (R)-4-thiazolo[4,5-d]pyrimidin-2-yl-1-(4-trifluoromethoxy-benzenesulfonyl)-piperazine-2-carboxylic acid 4-fluoromethoxy-benzylamide], the IC50 in experiment [1] (setting [3]) and in experiment [2] (setting [4]) was less than 100 nM throughout.
In the case of `CC(=O)c1ccc(S(=O)(=O)N2CCN(C(C)=O)CC2C(=O)NCc2ccc(C(F)(F)F)cc2)cc1` (centres unmarked) [Example 31, 4-acetyl-1-(4-acetyl-benzenesulfonyl)-piperazine-2-carboxylic acid 4-trifluoromethyl-benzylamide], the IC50 in experiment [1] (setting [5]) and in experiment [2] (setting [6]) was greater than 1000 nM in each case.
For `CCCc1ccc(S(=O)(=O)N2CCN(c3nc(C(=O)O)cs3)C[C@@H]2C(=O)NCc2ccc(C(C)C)cc2)cc1` [Example 298, 2-[(R)-3-(4-isopropyl-benzylcarbamoyl)-4-(4-propyl-benzenesulfonyl)-piperazin-1-yl]-thiazole-4-carboxylic acid], the IC50 in experiment [1] (setting [5]) and in experiment [2] (setting [6]) was 100 to 1000 nM in each case.
As to `CCCc1ccc(CNC(=O)[C@H]2CN(c3nc(Cl)c(C(=O)O)s3)CCN2S(=O)(=O)c2ccc(CC)cc2)cc1` [Example 868, 4-chloro-2-[(R)-4-(4-ethyl-benzenesulfonyl)-3-(4-propyl-benzylcarbamoyl)-piperazin-1-yl]-thiazole-5-carboxylic acid], the IC50 in experiment [1] (setting [3]) and in experiment [2] (setting [4]) was less than 100 nM each time.
On to `Cc1nc(Cl)c2sc(N3CCN(S(=O)(=O)c4ccc(OC(F)(F)F)cc4)[C@@H](C(=O)NCc4ccc(OC(F)F)cc4)C3)nc2n1` [Example 941, (R)-4-(7-chloro-5-methyl-thiazolo[4,5-d]pyrimidin-2-yl)-1-(4-trifluoromethoxy-benzenesulfonyl)-piperazine-2-carboxylic acid 4-difluoromethoxy-benzylamide], for which the IC50 in experiment [1] (setting [3]) and in experiment [2] (setting [4]) was less than 100 nM throughout.
For `CC(=O)N1CCN(S(=O)(=O)c2ccc(C3CCCCC3)cc2)C(C(=O)NCc2ccc(C(F)(F)F)cc2)C1` (centres unmarked) [Example 167, 4-acetyl-1-(4-cyclohexyl-benzenesulfonyl)-piperazine-2-carboxylic acid 4-trifluoromethyl-benzylamide], the IC50 in experiment [1] (setting [5]) and in experiment [2] (setting [6]) was greater than 1000 nM throughout.
As to `CCc1cc(S(=O)(=O)N2CCN(C(C)=O)C[C@@H]2C(=O)NCc2ccc(C(C)C)cc2)ccc1OC` [Example 236, (R)-4-acetyl-1-(3-ethyl-4-methoxy-benzenesulfonyl)-piperazine-2-carboxylic acid 4-isopropyl-benzylamide], the 50% inhibitory concentration (IC50) in experiment [1] (setting [5]) and in experiment [2] (setting [6]) was 100 to 1000 nM each time.
On to `CC(C)c1ccc(CNC(=O)[C@H]2CN(C(=O)NCc3ccccc3)CCN2S(=O)(=O)c2ccc(C(F)(F)F)cc2)cc1` [Example 243, (R)-4-(4-trifluoromethyl-benzenesulfonyl)-piperazine-1,3-dicarboxylic acid 1-benzylamide 3-(4-isopropyl-benzylamide)], for which the IC50 in experiment [1] (setting [5]) and in experiment [2] (setting [6]) was greater than 1000 nM throughout.
Turning to `CC(=O)N1CCN(S(=O)(=O)c2ccc(C(C)C)cc2)C(C(=O)NCc2ccc(N3CCOCC3)cc2)C1` (centres unmarked) [Example 80, 4-acetyl-1-(4-isopropyl-benzenesulfonyl)-piperazine-2-carboxylic acid 4-morpholin-4-yl-benzylamide], the IC50 in experiment [1] (setting [5]) and in experiment [2] (setting [6]) was greater than 1000 nM throughout.
Turning to `CC(=O)N1CCN(S(=O)(=O)c2ccc(OC(F)(F)F)c(I)c2)[C@@H](C(=O)NCc2ccc(C(C)C)cc2)C1` [Example 10, (R)-4-acetyl-1-(3-iodo-4-trifluoromethoxy-benzenesulfonyl)-piperazine-2-carboxylic acid 4-isopropyl-benzylamide], the IC50 in experiment [1] (setting [5]) and in experiment [2] (setting [6]) was less than 100 nM throughout.
